{"source": "patent US12037333B2", "about": "“Pyridopyrazine and pyridotriazine inhibitors of influenza virus replication” (priority 2018, dated 2024)"}
{"test_system": "Influenza type A (strain A/PR/8/34, ATCC VR-95)", "assay": "Influenza antiviral assay: inhibition of virus-induced cytopathic effects (CPE) in MDCK cells, XTT dye reduction", "assay_type": "cell-based", "settings": "Influenza A (H1N1), strain A/PR/8/34, MDCK cells, CPE inhibition at 4 days", "units": {"EC50": "nM"}}
{"molecule": "O=C1c2c(O)c(=O)ccn2N(C23c4ccccc4CC2Cc2c(Cl)cccc23)CN1CCF", "note": "(stereo not drawn) [Compound A114]", "EC50": "125 to 250"}
{"molecule": "CC(CCN1CN(C23c4ccccc4CC2Cc2ccccc23)n2ccc(=O)c(O)c2C1=O)c1ccccc1", "note": "(stereo not drawn) [Compound A33]", "EC50": "375 to 500"}
{"molecule": "CC1N(CC(F)F)C(=O)c2c(O)c(=O)ccn2N1C12c3ccccc3CC1Cc1c2ccc(F)c1F", "note": "(stereo not drawn) [Compound A137]", "EC50": "125 to 250"}
{"test_system": "Influenza type A (strain A/PR/8/34, ATCC VR-95)", "assay": "Influenza antiviral assay: inhibition of virus-induced cytopathic effects (CPE) in MDCK cells, XTT dye reduction", "assay_type": "cell-based", "settings": "Influenza A virus, H1N1 / PR/8, MDCK, 96 h, strain A/PR/8/34, MDCK cells, CPE inhibition at 4 days", "units": {"EC50": "nM"}}
{"molecule": "O=C1c2c(O)c(=O)ccn2N(C23c4ccccc4CC2Cc2cc(F)c(F)cc23)CN1CCc1cccc(F)c1", "note": "(stereo not drawn) [Compound A28, 1-(2,3-difluoro-9a,10-dihydroindeno[1,2-a]inden-4b(9H)-yl)-3-(3-fluorophenethyl)-5-hydroxy-2,3-dihydro-1H-pyrido[2,1-f][1,2,4]triazine-4,6-dione]", "EC50": "125 to 250"}
{"molecule": "CN1CN(C23c4ccccc4CC2(C)Cc2c3ccc(F)c2F)n2ccc(=O)c(O)c2C1=O", "note": "(stereo not drawn) [Compound A165]", "EC50": "< 125"}
{"molecule": "O=C1c2c(O)c(=O)ccn2N(C23c4ccccc4CC2Cc2c3ccc(F)c2F)CN1Cc1ccc(F)cc1", "note": "(stereo not drawn) [Compound A17, 1-(1,2-Difluoro-9a,10-dihydro-9H-indeno[1,2-a]inden-4b-yl)-3-(4-fluoro-benzyl)-5-hydroxy-2,3-dihydro-1H-pyrido[2,1-f][1,2,4]triazine-4,6-dione]", "EC50": "125 to 250"}
{"molecule": "CC1N(C2CCC2)C(=O)c2c(O)c(=O)ccn2N1C12c3ccccc3CC1Cc1c(F)cccc12", "note": "(stereo not drawn) [Compound A141]", "EC50": "375 to 500"}
{"molecule": "CCN1CN(C23c4ccccc4CC2Cc2ccc(F)cc23)n2ccc(=O)c(O)c2C1=O", "note": "(stereo not drawn) [Compound A52]", "EC50": "< 125"}
{"molecule": "O=C1c2c(O)c(=O)ccn2N(C23c4ccccc4CC2Cc2cc(F)c(F)cc23)CN1Cc1ccccc1", "note": "(stereo not drawn) [Compound A21, 3-benzyl-1-(2,3-difluoro-9a,10-dihydroindeno[1,2-a]inden-4b(9H)-yl)-5-hydroxy-2,3-dihydro-1H-pyrido[2,1-f][1,2,4]triazine-4,6-dione]", "EC50": "250 to 375"}
{"molecule": "O=C1c2c(O)c(=O)ccn2N(C23c4ccccc4CC2Cc2cc(F)c(F)cc23)CN1CC1CCOCC1", "note": "(stereo not drawn) [Compound A16, 1-(2,3-Difluoro-9a,10-dihydro-9H-indeno[1,2-a]inden-4b-yl)-5-hydroxy-3-(tetrahydro-pyran-4-ylmethyl)-2,3-dihydro-1H-pyrido[2,1-f][1,2,4]triazine-4,6-dione]", "EC50": "< 125"}
{"molecule": "Cc1cc(CN2CN(C34c5ccccc5CC3Cc3ccccc34)n3ccc(=O)c(O)c3C2=O)no1", "note": "(stereo not drawn) [Compound A144]", "EC50": "< 125"}
{"molecule": "CC1N(C)C(=O)c2c(O)c(=O)ccn2N1C12c3ccccc3CC1Cc1c(Cl)cccc12", "note": "(stereo not drawn) [Compound A94]", "EC50": "250 to 375"}
{"molecule": "COCCN1CN(C23c4ccccc4CC2Cc2ccccc23)n2ccc(=O)c(O)c2C1=O", "note": "(stereo not drawn) [Compound A110]", "EC50": "125 to 250"}
{"molecule": "CCN1CN(C23c4cccc(F)c4CC2Cc2c(F)cccc23)n2ccc(=O)c(O)c2C1=O", "note": "(stereo not drawn) [Compound A34]", "EC50": "< 125"}
{"molecule": "O=C1c2c(O)c(=O)ccn2N(C23c4ccccc4CC2Cc2c3ccc(F)c2F)CN1CC1CCCCC1", "note": "(stereo not drawn) [Compound A99]", "EC50": "> 500"}
{"molecule": "COCCN1CN(C23c4cccc(F)c4CC2Cc2c(F)cccc23)n2ccc(=O)c(O)c2C1=O", "note": "(stereo not drawn) [Compound A49]", "EC50": "< 125"}
{"molecule": "O=C1c2c(O)c(=O)ccn2N(C23c4ccccc4CC2Cc2ccccc23)CN1CC1CC1", "note": "(stereo not drawn) [Compound A2, 3-Cyclopropylmethyl-1-(9a,10-dihydro-9H-indeno[1,2-a]inden-4b-yl)-5-hydroxy-2,3-dihydro-1H-pyrido[2,1-f][1,2,4]triazine-4,6-dione]", "EC50": "125 to 250"}
{"molecule": "CN1CN(C23c4ccccc4CC2Cc2c3ccc(Cl)c2F)n2ccc(=O)c(O)c2C1=O", "note": "(stereo not drawn) [Compound A160]", "EC50": "< 125"}
{"molecule": "O=C1c2c(O)c(=O)ccn2N(C23c4ccccc4CC2Cc2c(Cl)cccc23)CN1CC1CCCC1", "note": "(stereo not drawn) [Compound A104]", "EC50": "> 500"}
{"molecule": "CC1N(CC2CC2)C(=O)c2c(O)c(=O)ccn2N1C12c3ccccc3CC1Cc1c(Cl)cccc12", "note": "(stereo not drawn) [Compound A140]", "EC50": "250 to 375"}
{"molecule": "O=C1c2c(O)c(=O)ccn2N(C23c4ccccc4CC2Cc2c(F)cccc23)CN1CC1CCCCO1", "note": "(stereo not drawn) [Compound A133]", "EC50": "125 to 250"}
{"molecule": "Cc1ccc2c(c1F)CC1Cc3ccccc3C21N1CN(C)C(=O)c2c(O)c(=O)ccn21", "note": "(stereo not drawn) [Compound A85]", "EC50": "125 to 250"}
{"molecule": "CCN1CN(C23c4ccccc4CC2Cc2c3ccc(C)c2F)n2ccc(=O)c(O)c2C1=O", "note": "(stereo not drawn) [Compound A98]", "EC50": "250 to 375"}
{"molecule": "COCCN1CN(C23c4ccccc4CC2Cc2c(F)cccc23)n2ccc(=O)c(O)c2C1=O", "note": "(stereo not drawn) [Compound A69]", "EC50": "< 125"}
{"molecule": "CN1CN(C23C(=Cc4ccccc42)Cc2ccccc23)n2ccc(=O)c(O)c2C1=O", "note": "(stereo not drawn) [Compound A30, 5-hydroxy-1-(indeno[1,2-a]inden-4b(9H)-yl)-3-methyl-2,3-dihydro-1H-pyrido[2,1-f][1,2,4]triazine-4,6-dione]", "EC50": "< 125"}
{"molecule": "CN1CN(C23c4ccccc4CC2Cc2ccccc23)n2ccc(=O)c(O)c2C1=O", "note": "(stereo not drawn) [Compound A1, 1-(9a, 10-dihydroindeno[1,2-a]inden-4b(9H)-yl)-5-hydroxy-3-methyl-2,3-dihydro-1H-pyrido[2,1-f][1,2,4]triazine-4,6-dione]", "EC50": "< 125"}
{"molecule": "CN1CN(C23c4ccccc4CC2Cc2c3ccc(F)c2Cl)n2ccc(=O)c(O)c2C1=O", "note": "(stereo not drawn) [Compound A46, 1-(1-Chloro-2-fluoro-9a,10-dihydroindeno[1,2-a]inden-4b(9H)-yl)-5-hydroxy-3-methyl-2,3-dihydro-1H-pyrido[2,1-f][1,2,4]triazine-4,6-dione]", "EC50": "< 125"}
{"molecule": "O=C1c2c(O)c(=O)ccn2N(C23c4ccccc4CC2Cc2c(Cl)cccc23)CN1CCF", "note": "(stereo not drawn) [Compound A111]", "EC50": "125 to 250"}
{"molecule": "CC1N(CC2CC2)C(=O)c2c(O)c(=O)ccn2N1C12c3ccccc3CC1Cc1c2ccc(F)c1F", "note": "(stereo not drawn) [Compound A128]", "EC50": "250 to 375"}
{"molecule": "O=C1c2c(O)c(=O)ccn2N(C23c4ccccc4CC2Cc2c3ccc(F)c2F)CN1CCc1cccc(F)c1", "note": "(stereo not drawn) [Compound A27, 1-(1,2-difluoro-9a,10-dihydroindeno[1,2-a]inden-4b(9H)-yl)-3-(3-fluorophenethyl)-5-hydroxy-2,3-dihydro-1H-pyrido[2,1-f][1,2,4]triazine-4,6-dione]", "EC50": "125 to 250"}
{"molecule": "CC(C)N1CN(C23c4ccccc4CC2(C)Cc2c3ccc(F)c2F)n2ccc(=O)c(O)c2C1=O", "note": "(stereo not drawn) [Compound A167]", "EC50": "< 125"}
{"molecule": "O=C1c2c(O)c(=O)ccn2N(C23c4ccccc4CC2Cc2c3ccc(F)c2F)CN1CCCF", "note": "(stereo not drawn) [Compound A80]", "EC50": "< 125"}
{"molecule": "O=C1c2c(O)c(=O)ccn2N(C23c4ccccc4CC2Cc2cc(F)c(F)cc23)CN1Cc1ccc(F)cc1", "note": "(stereo not drawn) [Compound A23, 1-(2,3-Difluoro-9a,10-dihydro-9H-indeno[1,2-a]inden-4b-yl)-3-(4-fluoro-benzyl)-5-hydroxy-2,3-dihydro-1H-pyrido[2,1-f][1,2,4]triazine-4,6-dione]", "EC50": "> 500"}
{"molecule": "CC1N(CC(F)F)C(=O)c2c(O)c(=O)ccn2N1C12c3ccccc3CC1Cc1c(F)cccc12", "note": "(stereo not drawn) [Compound A139]", "EC50": "125 to 250"}
{"molecule": "O=C1c2c(O)c(=O)ccn2N(C23c4cccc(F)c4CC2Cc2c(F)cccc23)CN1CCF", "note": "(stereo not drawn) [Compound A58]", "EC50": "< 125"}
{"molecule": "CC(C)N1CN(C23c4cccc(F)c4CC2(C)Cc2c(F)cccc23)n2ccc(=O)c(O)c2C1=O", "note": "(stereo not drawn) [Compound A89]", "EC50": "125 to 250"}
{"molecule": "O=C1c2c(O)c(=O)ccn2N(C23c4ccccc4CC2Cc2c(Cl)cccc23)CN1CC1CC1", "note": "(stereo not drawn) [Compound A108]", "EC50": "250 to 375"}
{"molecule": "CC1N(CC2CC2)C(=O)c2c(O)c(=O)ccn2N1C12c3ccccc3CC1Cc1c(F)cccc12", "note": "(stereo not drawn) [Compound A129]", "EC50": "250 to 375"}
{"molecule": "O=C1c2c(O)c(=O)ccn2N(C23c4ccccc4CC2Cc2c3ccc(F)c2F)CN1Cc1ccccc1", "note": "(stereo not drawn) [Compound A11, 3-Benzyl-1-(1,2-difluoro-9a,10-dihydro-9H-indeno[1,2-a]inden-4b-yl)-5-hydroxy-2,3-dihydro-1H-pyrido[2,1-t][1,2,4]triazine-4,6-dione]", "EC50": "> 500"}
{"molecule": "O=C1c2c(O)c(=O)ccn2N(C23c4cccc(F)c4CC2Cc2c(F)cccc23)CN1CC(F)F", "note": "(stereo not drawn) [Compound A71]", "EC50": "< 125"}
{"molecule": "COCCN1CN(C23c4ccccc4CC2Cc2c(Cl)cccc23)n2ccc(=O)c(O)c2C1=O", "note": "(stereo not drawn) [Compound A101]", "EC50": "125 to 250"}
{"molecule": "CN1CN(C23c4ccccc4CC2Cc2c3ccc(Cl)c2Cl)n2ccc(=O)c(O)c2C1=O", "note": "(stereo not drawn) [Compound A146]", "EC50": "< 125"}
{"molecule": "CN1C(=O)c2c(O)c(=O)ccn2N(C23c4cccc(F)c4CC2Cc2c(F)cccc23)C1CN", "note": "(stereo not drawn) [Compound A107, 2-(aminomethyl)-1-(1,8-difluoro-9a,10-dihydroindeno[1,2-a]inden-4b(9H)-yl)-5-hydroxy-3-methyl-2,3-dihydro-1H-pyrido[2,1-f][1,2,4]triazine-4,6-dione]", "EC50": "125 to 250"}
{"molecule": "O=C1c2c(O)c(=O)ccn2N(C23c4ccccc4CC2Cc2c3ccc(F)c2F)CN1Cc1cccc(F)c1", "note": "(stereo not drawn) [Compound A26, 1-(1,2-difluoro-9a,10-dihydroindeno[1,2-a]inden-4b(9H)-yl)-3-(3-fluorobenzyl)-5-hydroxy-2,3-dihydro-1H-pyrido[2,1-f][1,2,4]triazine-4,6-dione]", "EC50": "375 to 500"}
{"molecule": "CC(CCN1CN(C23c4ccccc4CC2Cc2ccccc23)n2ccc(=O)c(O)c2C1=O)c1ccccc1", "note": "(stereo not drawn) [Compound A32, 1-(9a,10-dihydroindeno[1,2-a]inden-4b(9H)-yl)-5-hydroxy-3-(3-phenylbutyl)-2,3-dihydro-1H-pyrido[2,1-f][1,2,4]triazine-4,6-dione]", "EC50": "> 500"}
{"molecule": "CCN1CN(C23c4ccccc4CC2(C)Cc2cc(F)ccc23)n2ccc(=O)c(O)c2C1=O", "note": "(stereo not drawn) [Compound A116]", "EC50": "< 125"}
{"molecule": "O=C1c2c(O)c(=O)ccn2N(C23c4ccccc4CC2Cc2cc(F)c(F)cc23)CN1CCc1ccc(F)cc1", "note": "(stereo not drawn) [Compound A29, 1-(2,3-difluoro-9a,10-dihydroindeno[1,2-a]inden-4b(9H)-yl)-3-(4-fluorophenethyl)-5-hydroxy-2,3-dihydro-1H-pyrido[2,1-f][1,2,4]triazine-4,6-dione]", "EC50": "125 to 250"}
{"molecule": "O=C1c2c(O)c(=O)ccn2N(C23c4ccccc4CC2Cc2c(Cl)cccc23)CN1CCCF", "note": "(stereo not drawn) [Compound A102]", "EC50": "125 to 250"}
{"molecule": "O=C1c2c(O)c(=O)ccn2N(C23c4ccccc4CC2Cc2c(F)cccc23)CN1CC1CCOCC1", "note": "(stereo not drawn) [Compound A75]", "EC50": "< 125"}
{"molecule": "CC(CCN1CN(C23c4ccccc4CC2Cc2c3ccc(F)c2F)n2ccc(=O)c(O)c2C1=O)c1ccccc1", "note": "(stereo not drawn) [Compound A91]", "EC50": "> 500"}
{"molecule": "CC(C)CN1CN(C23c4ccccc4CC2Cc2c3ccc(F)c2F)n2ccc(=O)c(O)c2C1=O", "note": "(stereo not drawn) [Compound A149]", "EC50": "< 125"}
